Assay results reported in patent US8106055B2, “Substituted amide compounds” (Gruenenthal GmbH, priority 2007, dated 2012).

Assays:
human μ opiate receptor = biological target: T1, human μ opiate receptor (Homo sapiens, UniProt P35372); assay: Affinity for the human μ opiate receptor ([3H]-naloxone displacement, CHO-K1 receptor membrane preparation, SPA); assay type: binding; details: test concentration of 1 μM
T1 construct: purchased PerkinElmer Life Sciences, Zaventem, Belgium RB-HOM; host or cells: CHO-K1 cells (membrane preparation)
In short: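 Readout is percent displacement of [3H]-naloxone (1 nmol/l) from human μ receptor in CHO-K1 membranes, measured at 1 μmol/l compound. Incubation runs 90 minutes at room temperature with WGA-SPA beads in Tris-HCl/BSA buffer; non-specific binding is defined with 100 μmol/l naloxone.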

[1] = biological target: T2, serotonin (5-HT) reuptake (Rattus norvegicus, UniProt P31652); assay: Inhibition of serotonin (5HT) reuptake in synaptosomes from rat brain; assay type: biochemical; details: test concentration of 10 μM
T2 construct: synaptosomes are freshly isolated from areas of the rat brain; from tissue; host or cells: rat brain synaptosomes (P2 fraction)
In short: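 Freshly isolated rat brain synaptosomes (P2 fraction) used for 5-HT reuptake. Test compound at 10 μM, activity given as % inhibition.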

T2 sequence (P31652 whole entry): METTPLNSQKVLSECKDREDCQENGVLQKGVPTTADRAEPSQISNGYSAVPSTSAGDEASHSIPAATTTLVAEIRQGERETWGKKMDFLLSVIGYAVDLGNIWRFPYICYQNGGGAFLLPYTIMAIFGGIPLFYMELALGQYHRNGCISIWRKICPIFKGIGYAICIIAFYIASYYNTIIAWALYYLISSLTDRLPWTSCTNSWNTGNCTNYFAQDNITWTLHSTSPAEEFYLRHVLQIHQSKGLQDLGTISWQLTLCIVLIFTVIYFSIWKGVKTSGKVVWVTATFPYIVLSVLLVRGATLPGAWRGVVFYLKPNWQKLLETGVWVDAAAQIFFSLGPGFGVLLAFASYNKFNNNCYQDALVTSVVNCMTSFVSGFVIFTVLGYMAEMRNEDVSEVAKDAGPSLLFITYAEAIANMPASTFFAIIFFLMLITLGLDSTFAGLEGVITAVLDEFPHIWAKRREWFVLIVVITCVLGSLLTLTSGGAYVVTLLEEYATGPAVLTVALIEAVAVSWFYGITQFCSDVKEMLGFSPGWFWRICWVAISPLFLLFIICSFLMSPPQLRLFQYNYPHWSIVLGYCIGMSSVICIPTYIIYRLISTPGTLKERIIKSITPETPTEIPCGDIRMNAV
T1 sequence (P35372 whole entry): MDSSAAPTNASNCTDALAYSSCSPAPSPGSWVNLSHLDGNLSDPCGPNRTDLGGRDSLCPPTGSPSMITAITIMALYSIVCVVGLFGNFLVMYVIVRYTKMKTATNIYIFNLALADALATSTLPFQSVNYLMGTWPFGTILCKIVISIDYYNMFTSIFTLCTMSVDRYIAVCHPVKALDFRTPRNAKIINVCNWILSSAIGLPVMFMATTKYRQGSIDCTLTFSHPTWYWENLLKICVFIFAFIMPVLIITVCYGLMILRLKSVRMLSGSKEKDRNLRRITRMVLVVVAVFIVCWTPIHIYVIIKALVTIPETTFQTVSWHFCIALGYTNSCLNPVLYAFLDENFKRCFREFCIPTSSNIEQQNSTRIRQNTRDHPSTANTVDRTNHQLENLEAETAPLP

Row | Structure (SMILES) | μ (binding on the μ opioid receptor, % inhibition) (human μ opiate receptor) [%] | 5-HT (inhibition of reuptake of serotonin, % inhibition) [1] [%]
1 | Cc1ccc(S(=O)(=O)N2CCC(OCC(=O)NCC3CCC(C(CCc4ccccc4)N(C)C)CC3)C2)cc1 (centres unmarked) [Example 538] | 25 | 91
2 | COc1cc(C)c(S(=O)(=O)N2CCC(CCOCC(=O)NCC3CCC(C(CCc4ccccc4)N(C)C)CC3)CC2)c(C)c1C (centres unmarked) [Example 521] | 39 | 89
3 | CN(C)C(c1ccc(F)cc1)C1CCC(NC(=O)COC2CCN(S(=O)(=O)c3ccccc3)C2)CC1 (centres unmarked) [Example 463] | 38 | 97
4 | COc1cc(C)c(S(=O)(=O)N2CCC(OCC(=O)NCCC3CCC(C(c4ccc(F)cc4)N(C)C)CC3)C2)c(C)c1C (centres unmarked) [Example 467] | 40 | 95
5 | COc1ccc(S(=O)(=O)N2CCCCC2COCC(=O)NCCC2CCC(C(c3ccc(Cl)cc3)N(C)C)CC2)c(OC)c1 (centres unmarked) [Example 474] | 46 | 88
6 | CN(C)C(CCc1ccccc1)C1CCC(CNC(=O)COC2CCCCC2N(C)S(=O)(=O)c2ccc(Cl)c(Cl)c2)CC1 (centres unmarked) [Example 451] | 48 | 84
7 | CN(C)C(c1ccc(F)cc1)C1CCC(CCNC(=O)COC2CCN(S(=O)(=O)c3ccc(Cl)cc3Cl)C2)CC1 (centres unmarked) [Example 456] | 50 | 88
8 | COc1ccc(S(=O)(=O)N2CCCCC2COCC(=O)NCCC2CCC(C(c3ccc(F)cc3)N(C)C)CC2)cc1OC (centres unmarked) [Example 462] | 51 | 90
9 | COc1cc(C)c(S(=O)(=O)N2CCC(OCC(=O)NCC3CCC(C(c4ccc(Cl)cc4)N(C)C)CC3)CC2)c(C)c1C (centres unmarked) [Example 498] | 36 | 88
10 | CN(C)C(c1ccc(F)cc1)C1CCC(CCNC(=O)COCCN(Cc2ccccc2)S(=O)(=O)c2ccccc2)CC1 (centres unmarked) [Example 489] | 35 | 97
11 | COc1cc(C)c(S(=O)(=O)N2CCCC(OCC(=O)NCCC3CCC(C(c4ccc(F)cc4)N(C)C)CC3)C2)c(C)c1C (centres unmarked) [Example 468] | 53 | 95
12 | COc1cc(C)c(S(=O)(=O)N(C)CCOCC(=O)NCC2CCC(C(CCc3ccccc3)N(C)C)CC2)c(C)c1 (centres unmarked) [Example 525] | 31 | 84
13 | COc1cc(C)c(S(=O)(=O)N2CCC(OCC(=O)NCC3CCC(C(CCc4ccccc4)N(C)C)CC3)C2)c(C)c1C (centres unmarked) [Example 503] | 37 | 90
14 | Cc1cc(C)c(S(=O)(=O)N2CCC(OCC(=O)NCCC3CCC(C(c4ccc(F)cc4)N(C)C)CC3)C2)c(C)c1 (centres unmarked) [Example 501] | 45 | 77
15 | COc1ccc(S(=O)(=O)N2CCCCC2CCOCC(=O)NCC2CCC(C(CCc3ccccc3)N(C)C)CC2)cc1 (centres unmarked) [Example 535] | 34 | 85
16 | COc1cc(C)c(S(=O)(=O)N2CCC(OCC(=O)NCCC3CCC(C(c4ccc(F)cc4)N(C)C)CC3)CC2)c(C)c1C (centres unmarked) [Example 480] | 38 | 98
17 | COc1cc(C)c(S(=O)(=O)N2CCC(OCC(=O)NC3CCC(C(c4ccc(F)cc4)N(C)C)CC3)CC2)c(C)c1C (centres unmarked) [Example 454] | 48 | 95
18 | COc1ccc(S(=O)(=O)N2CCCCC2COCC(=O)NC2CCC(C(c3ccc(F)cc3)N(C)C)CC2)cc1 (centres unmarked) [Example 450] | 50 | 90
19 | CN(C)C(c1ccc(F)cc1)C1CCC(CCNC(=O)COC2CCN(S(=O)(=O)c3ccccc3)C2)CC1 (centres unmarked) [Example 530] | 26 | 89
20 | COc1cc(C)c(S(=O)(=O)N2CCC(CCOCC(=O)NCCC3CCC(C(c4ccc(F)cc4)N(C)C)CC3)CC2)c(C)c1C (centres unmarked) [Example 510] | 33 | 99
21 | COc1ccc(S(=O)(=O)N2CCCC2COCC(=O)NCC2CCC(C(c3ccc(F)cc3)N(C)C)CC2)cc1 (centres unmarked) [Example 511] | 39 | 98
22 | COc1ccc(S(=O)(=O)N2CCCCC2COCC(=O)NCC2CCC(C(CCc3ccccc3)N(C)C)CC2)cc1 (centres unmarked) [Example 469] | 50 | 87

Row | Structure (SMILES) | μ (binding on the μ opioid receptor, % inhibition) (human μ opiate receptor) [%] | 5-HT (inhibition of reuptake of serotonin, % inhibition) [1] [%]
23 | CN(C)C(CCc1ccccc1)C1CCC(CNC(=O)COCCN(C)S(=O)(=O)c2ccc(Cl)cc2Cl)CC1 (centres unmarked) [Example 513] | 38 | 89
24 | COc1cc(C)c(S(=O)(=O)N2CCC(CCOCC(=O)NCC3CCC(C(c4ccc(Cl)cc4)N(C)C)CC3)CC2)c(C)c1C (centres unmarked) [Example 499] | 37 | 75
25 | COc1ccc(S(=O)(=O)N(C)CCOCC(=O)NCC2CCC(C(c3ccc(F)cc3)N(C)C)CC2)cc1OC (centres unmarked) [Example 514] | 27 | 70
26 | COc1ccc(S(=O)(=O)N(C)CCOCC(=O)NCCC2CCC(C(c3ccc(F)cc3)N(C)C)CC2)cc1OC (centres unmarked) [Example 484] | 35 | 96
27 | COc1ccc(S(=O)(=O)N2CCCCC2COCC(=O)NC2CCC(C(c3ccc(F)cc3)N(C)C)CC2)c(OC)c1 (centres unmarked) [Example 524] | 33 | 86
28 | COc1cc(C)c(S(=O)(=O)N2CCCC(OCC(=O)NCCC3CCC(C(c4ccc(Cl)cc4)N(C)C)CC3)C2)c(C)c1C (centres unmarked) [Example 485] | 46 | 92
29 | CN(C)C(c1ccc(F)cc1)C1CCC(NC(=O)COCCN2CCN(S(=O)(=O)c3ccccc3)CC2)CC1 (centres unmarked) [Example 502] | 33 | 97
30 | CN(C)C(c1cccc(F)c1)C1CCC(CNC(=O)COC2CCN(S(=O)(=O)c3ccccc3)CC2)CC1 (centres unmarked) [Example 477] | 51 | 95
31 | CN(C)C(c1ccc(F)cc1)C1CCC(CNC(=O)COC2CCN(S(=O)(=O)c3ccc(F)cc3)C2)CC1 (centres unmarked) [Example 522] | 35 | 98
32 | Cc1ccc(S(=O)(=O)N(C)CCOCC(=O)NCC2CCC(C(CCc3ccccc3)N(C)C)CC2)cc1 (centres unmarked) [Example 452] | 46 | 88
33 | COc1cc(C)c(S(=O)(=O)N(CCOCC(=O)NCC2CCC(C(c3ccc(Cl)cc3)N(C)C)CC2)Cc2ccccc2)c(C)c1 (centres unmarked) [Example 473] | 34 | 64
34 | COc1ccc(S(=O)(=O)N2CCC(OCC(=O)NC3CCC(C(c4ccc(F)cc4)N(C)C)CC3)C2)cc1OC (centres unmarked) [Example 512] | 42 | 86
35 | COc1cc(C)c(S(=O)(=O)N2CCC(OCC(=O)NCC3CCC(C(c4ccc(F)cc4)N(C)C)CC3)CC2)c(C)c1C (centres unmarked) [Example 527] | 38 | 96
36 | CN(C)C(c1ccc(F)cc1)C1CCC(CCNC(=O)COCCC2CCN(S(=O)(=O)c3ccccc3)CC2)CC1 (centres unmarked) [Example 470] | 35 | 82
37 | Cc1cc(C)c(S(=O)(=O)N2CCC(OCC(=O)NCC3CCC(C(CCc4ccccc4)N(C)C)CC3)C2)c(C)c1 (centres unmarked) [Example 475] | 48 | 87
38 | CN(C)C(CCc1ccccc1)C1CCC(CNC(=O)COCCN2CCN(S(=O)(=O)c3ccccc3)CC2)CC1 (centres unmarked) [Example 526] | 32 | 90
39 | CN(C)C(c1ccccc1)C1CCC(CNC(=O)COCCC2CCN(S(=O)(=O)c3ccccc3)CC2)CC1 (centres unmarked) [Example 507] | 32 | 75
40 | CN(C)C(c1ccc(Cl)cc1)C1CCC(CNC(=O)COC2CCN(S(=O)(=O)c3ccccc3)CC2)CC1 (centres unmarked) [Example 471] | 35 | 94
41 | CN(C)C(CCc1ccccc1)C1CCC(CNC(=O)COCCN(Cc2ccccc2)S(=O)(=O)c2ccccc2)CC1 (centres unmarked) [Example 533] | 28 | 93
42 | CN(C)C(c1ccc(F)cc1)C1CCC(NC(=O)COCC2CCCN(S(=O)(=O)c3ccccc3)C2)CC1 (centres unmarked) [Example 478] | 40 | 97
43 | COc1ccc(S(=O)(=O)N(C)CCOCC(=O)NCCC2CCC(C(c3ccc(F)cc3)N(C)C)CC2)cc1 (centres unmarked) [Example 519] | 39 | 88
